Assays:
Settings in all cases: 48 h
NCI-H295R [1] = assay: AC50 viability; higher = less potent
Procedure, shortened: (§1)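 AC50 and area under the curve values derive from fitted concentration-response curves, restricted to inhibitory or non-responding curve classes. The curves came from three adrenocortical carcinoma cell lines in 1,536-well plates, each receiving 23 nL of every library compound at 11 concentrations. Viability was read by CellTiter-Glo luminescence after 48 h, normalised per plate to vehicle and empty-well controls.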

NCI-H295R [2] = assay: area under concentration-response curve (viability) (AUC (a.u.)); higher = less active
Procedure, shortened: as §1

CU-ACC1 = assay: as above
Procedure, shortened: as §1

CU-ACC2 = assay: as above
Procedure, shortened: as §1

| Structure (SMILES) | AC50 viability (NCI-H295R [1]) | area under concentration-response curve (NCI-H295R [2]) | area under concentration-response curve (CU-ACC1) | area under concentration-response curve (CU-ACC2) |
| --- | --- | --- | --- | --- |
| O=C(Nc1nc2cccc(-c3ccc(CN4CC[S+](=O)([O-])CC4)cc3)n2n1)C1CC1 | 18.6 µM | 535 | – | – |
| C[C@@H]1C[C@H]2[C@@H]3CC\C4=C\C(=O)\C=C/[C@]4(C)[C@@]3(Cl)[C@@H](O)C[C@]2(C)[C@@]1(OC(=O)C5=CC=CO5)C(=O)CCl | 37.2 µM | 580 | – | – |
| COc1cc(Nc2ncc(F)c(Nc3ccc4c(n3)N(COP(=O)(O)O)C(=O)C(C)(C)O4)n2)cc(OC)c1OC | 14.8 µM | 512 | – | – |
| COc1ccc(C(=O)c2c(C)n(CCN3CCOCC3)c3cc(I)ccc23)cc1 | 8.33 µM | 392 | 317 | – |
| COC(=O)Nc1nc2cc([S+]([O-])c3ccccc3)ccc2[nH]1 (stereo not given) | 11.8 µM | 522 | – | – |
| Cc1cncc2cccc([S+](=O)([O-])N3CCCN(C(=O)CN)C[C@@H]3C)c12 | 16.6 µM | 433 | 465 | – |
| CCN(CC)CCCCNc1ncc2c(n1)N(C)C(=O)N(c1c(Cl)c(OC)cc(OC)c1Cl)C2 | 16.6 µM | 524 | 520 | – |
| O=C(c1ccc(OCCN2CCCCC2)cc1)c1c(-c2ccc(O)cc2)sc2cc(O)ccc12 | 23.5 µM | 557 | – | – |
| CC(=O)N1CCN(c2ccc(OC[C@H]3CO[C@](Cn4ccnc4)(c4ccc(Cl)cc4Cl)O3)cc2)CC1 | 20.9 µM | 342 | – | – |
| CCN(C)[S+](=O)([O-])Nc1ccc(F)c(C(=O)c2c[nH]c3ncc(-c4cnc(C5CC5)nc4)cc23)c1F | 18.6 µM | 502 | – | – |
| CN(C)CC[C@H](CSc1ccccc1)Nc1ccc([S+](=O)([O-])NC(=O)c2ccc(N3CCN(Cc4ccccc4-c4ccc(Cl)cc4)CC3)cc2)cc1[N+](=O)[O-] | 18.6 µM | 535 | – | – |
| CN(C)CCNC(=O)NC[C@H]1CC[C@@H]2[C@H](O1)c1cc(C(F)(F)F)ccc1N[C@H]2c1ccccc1 | 5.9 µM | 437 | – | – |
| NCC(=O)Nc1ccc(-n2nc(C(F)(F)F)cc2-c2ccc3c(ccc4ccccc43)c2)cc1 | 23.5 µM | 551 | – | – |
| Cc1ccc(Sc2ccccc2N2CCNCC2)c(C)c1 | 20.9 µM | 455 | – | – |
| Cc1ccc(-c2nn(C(C)(C)CNC(=O)c3ccncc3)c3ncnc(N)c23)cc1 | 16.6 µM | 512 | 515 | – |
| CCCCc1oc2ccccc2c1C(=O)c1cc(I)c(OCCN(CC)CC)c(I)c1 | 23.5 µM | 479 | – | – |
| CC1(C)C(=O)N(c2ccc(C#N)c(C(F)(F)F)c2)C(=S)N1Cc1ccc(-c2c[nH]nn2)cc1 | 20.9 µM | 483 | 472 | – |
| CCN(CC)C(=O)C1=CC=C(C=C1)C/2=C/C3(CCNCC3)OC4=CC=CC(=C24)O | 20.9 µM | 404 | – | – |
| CCOC(=O)[C@@H](N)Cc1ccc(-c2cc(O[C@H](c3ccc(Cl)cc3-n3ccc(C)n3)C(F)(F)F)nc(N)n2)cc1 | 20.9 µM | 506 | – | – |
| CSc1ccc(C(=O)/C=C/c2cc(C)c(OC(C)(C)C(=O)O)c(C)c2)cc1 | 48.1 µM | 571 | 540 | – |
| Cc1ccc([C@@H]2O[C@H](CO)[C@@H](O)[C@H](O)[C@H]2O)cc1Cc1ccc(-c2ccc(F)cc2)s1 | 23.5 µM | 521 | – | – |

| Structure (SMILES) | AC50 viability (NCI-H295R [1]) | area under concentration-response curve (NCI-H295R [2]) | area under concentration-response curve (CU-ACC1) | area under concentration-response curve (CU-ACC2) |
| --- | --- | --- | --- | --- |
| CCOc1cc2c(c(F)c1OCC)C(=N)N(CC(=O)c1cc(N3CCOCC3)c(OC)c(C(C)(C)C)c1)C2 | 20.9 µM | 492 | – | – |
| Clc1ccc(CCC(Cn2ccnc2)Sc2c(Cl)cccc2Cl)cc1 (stereo not given) | 33.2 µM | 491 | – | – |
| Cc1ccc(Nc2nnc(Cc3ccncc3)c3ccccc23)cc1Br | 18.6 µM | 438 | – | – |
| COc1cc(Oc2ccnc3cc(OC)c(OC)cc23)ccc1NC(=O)NC(C)c1nccs1 (stereo not given) | 14.8 µM | 540 | – | – |
| COc1c(C)c2c(c(O)c1C/C=C(\C)CCC(=O)OCCN1CCOCC1)C(=O)OC2 | 0.468 µM | 429 | – | – |
| CN(C)CC(=O)N1CCC(CC1)C2=CC=C(NC(=O)C3=NC(=C[NH]3)C#N)C(=C2)\C4=C\CCCC4 | 23.5 µM | 553 | – | – |
| Cc1ncc(NC(=O)c2ccc(CN3CCN(C)CC3)c(C(F)(F)F)c2)cc1Nc1nccc(-c2cccnc2)n1 | 23.5 µM | 493 | – | – |
| CCN(CC)CCCCNc1ncc2cc(-c3cc(OC)cc(OC)c3)c(NC(=O)NC(C)(C)C)nc2n1 | 23.5 µM | 476 | – | – |
| CC(=O)N[C@H]1[C@H](O[C@@H]2c3ccc(c(Cl)c3)Oc3cc4cc(c3O[C@@H]3O[C@H](CO)[C@@H](O)[C@H](O)[C@H]3NC(=O)CCCCCCCC(C)C)Oc3ccc(cc3Cl)C[C@H]3NC(=O)[C@H](N)c5ccc(O)c(c5)Oc5cc(O)cc(c5)[C@H](NC3=O)C(=O)N[C@H]4C(=O)N[C@H]3C(=O)N[C@@H]2C(=O)N[C@@H](C(=O)O)c2cc(O)cc(O[C@H]4O[C@H](CO)[C@@H](O)[C@H](O)[C@@H]4O)c2-c2cc3ccc2O)O[C@H](CO)[C@@H](O)[C@@H]1O | – | 551 | 492 | 593 |
| CCOC(=O)/C=C/[C@H](C[C@@H]1CCNC1=O)NC(=O)[C@@H](CC(=O)[C@@H](NC(=O)c1cc(C)on1)C(C)C)Cc1ccc(F)cc1 | – | 539 | 530 | 523 |
| CC(C)(Sc1ccc(CCN(CCCCC2CCCCC2)C(=O)NC2CCCCC2)cc1)C(=O)O | – | 501 | 506 | 585 |
| CC/1=C2/N(C(=O)C(=C1)/NC3=CC(=NC=N3)N)C4(CCCCC4)NC2=O | – | 537 | 594 | 641 |
| NC(=O)c1cnc(-c2ccc(C3(N)CCC3)cc2)c(-c2ccccc2)c1 | – | 554 | 537 | 648 |
| CN[C@@H](C)C(=O)N[C@H]1CN(C(=O)CC(C)C)CC[C@H]2CC[C@@H](C(=O)NC(c3ccccc3)c3ccccc3)N2C1=O | – | 420 | 338 | 372 |
| C[C@]\12CC[C@H](O)CC1=C/CC3C2CC[C@@]\4(C)C3C\C=C4[N]5C=NC6=C5C=CC=C6 (stereo not given in full) | – | 548 | 540 | 516 |
| CC1Cc2ccccc2N1NC(=O)c1ccc(Cl)c([S+](N)(=O)[O-])c1 (stereo not given) | – | 531 | 488 | 583 |
| CN(Cc1ccccc1)C(=O)c1ccc([S+](=O)([O-])Nc2ccccc2)cc1 | – | 519 | 491 | 550 |
| C[C@H]1C[C@@H](n2c(Nc3ccc(OC(F)(F)F)cc3)nc3cc(CCC(=O)O)ccc32)CC(C)(C)C1 | – | 485 | 424 | 405 |
| Cc1cn[nH]c1 | – | 524 | 492 | 575 |
| CO[C@H](C1COC1)C2=C(Cl)C3=C(CCN(C\C4=C(OC)\C=C(\C)NC4=O)C3=O)C(=C2)Cl | – | 536 | 496 | 579 |

— the supplement of paper PMC10949913
